In PubChem BioAssay (NCI):
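Growth conditions: 96-well plates. Treatment: test compound, 48 hours, 5 concentrations. Analysis: linear interpolation between bracketing concentrations; unreached endpoints set to highest concentration. GI50 = concentration required for 50% inhibition of growth. Definition used: TGI = concentration required for complete inhibition of growth.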

What was measured:
Experiment in all cases: NCI-60 cell line screen, 48 h
HCT-15 colon = test system: HCT-15 colon
MDA-MB-231 breast = test system: MDA-MB-231 breast
NCI/ADR-RES ovarian = test system: NCI/ADR-RES ovarian
NCI-H226 lung = test system: NCI-H226 lung
TK-10 renal = test system: TK-10 renal
KM12 colon = test system: KM12 colon
SF-268 CNS = test system: SF-268 CNS
SNB-19 CNS = test system: SNB-19 CNS
A549 NSCLC = test system: A549 NSCLC
SF-295 CNS = test system: SF-295 CNS
ACHN renal = test system: ACHN renal
MCF7 breast = test system: MCF7 breast
CAKI-1 renal = test system: CAKI-1 renal
UO-31 renal = test system: UO-31 renal
SW-620 colon = test system: SW-620 colon
NCI-H23 lung = test system: NCI-H23 lung
SN12C renal = test system: SN12C renal
SR leukemia = test system: SR leukemia
T-47D breast = test system: T-47D breast
EKVX NSCLC = test system: EKVX NSCLC
HOP-62 NSCLC = test system: HOP-62 NSCLC
M14 melanoma = test system: M14 melanoma
SK-MEL-2 melanoma = test system: SK-MEL-2 melanoma
MOLT-4 leukemia = test system: MOLT-4 leukemia
HL-60(TB) leukemia = test system: HL-60(TB) leukemia
BT-549 breast = test system: BT-549 breast
SK-OV-3 ovarian = test system: SK-OV-3 ovarian
OVCAR-4 ovarian = test system: OVCAR-4 ovarian

CC[C@H](Nc1cc(C)nc(N)n1)c1nc2cccc(NCc3ccc(C(=O)NO)cc3)c2c(=O)n1-c1ccccc1
GI50 (HCT-15 colon): 10.4 µM | TGI (HCT-15 colon): 25.1 µM | GI50 (MDA-MB-231 breast): 1.62 µM | TGI (MDA-MB-231 breast): 3.16 µM | GI50 (NCI/ADR-RES ovarian): 77.2 µM | TGI (NCI/ADR-RES ovarian): > 100 µM | GI50 (NCI-H226 lung): 2.86 µM | TGI (NCI-H226 lung): 14.9 µM | GI50 (TK-10 renal): 4.28 µM | TGI (TK-10 renal): 16.9 µM | GI50 (KM12 colon): 1.69 µM | TGI (KM12 colon): 3.31 µM | GI50 (SF-268 CNS): 1.82 µM | TGI (SF-268 CNS): 3.49 µM | GI50 (SNB-19 CNS): 1.83 µM | TGI (SNB-19 CNS): 4.77 µM | GI50 (A549 NSCLC): 3.79 µM | TGI (A549 NSCLC): 16.4 µM | GI50 (SF-295 CNS): 1.66 µM | TGI (SF-295 CNS): 3.48 µM | GI50 (ACHN renal): 10.5 µM | TGI (ACHN renal): 22.7 µM | GI50 (MCF7 breast): 1.98 µM | TGI (MCF7 breast): 6.39 µM | GI50 (CAKI-1 renal): 3.33 µM | TGI (CAKI-1 renal): 14.2 µM | GI50 (UO-31 renal): 10.2 µM | TGI (UO-31 renal): 24.2 µM | GI50 (SW-620 colon): 1.61 µM | TGI (SW-620 colon): 4.19 µM | GI50 (NCI-H23 lung): 2.01 µM | TGI (NCI-H23 lung): 4.72 µM | GI50 (SN12C renal): 1.96 µM | TGI (SN12C renal): 4.72 µM | GI50 (SR leukemia): 0.679 µM | TGI (SR leukemia): 13 µM | GI50 (T-47D breast): 1.54 µM | TGI (T-47D breast): 6.13 µM | GI50 (EKVX NSCLC): 3.32 µM | TGI (EKVX NSCLC): 12.2 µM | GI50 (HOP-62 NSCLC): 2.05 µM | TGI (HOP-62 NSCLC): 4.47 µM | GI50 (M14 melanoma): 1.85 µM | TGI (M14 melanoma): 3.88 µM | GI50 (SK-MEL-2 melanoma): 2.58 µM | TGI (SK-MEL-2 melanoma): 7.37 µM | GI50 (MOLT-4 leukemia): 2.52 µM | TGI (MOLT-4 leukemia): 10.2 µM | GI50 (HL-60(TB) leukemia): 2.59 µM | TGI (HL-60(TB) leukemia): 6.1 µM | GI50 (BT-549 breast): 2.44 µM | TGI (BT-549 breast): 6.57 µM | GI50 (SK-OV-3 ovarian): 2.52 µM | TGI (SK-OV-3 ovarian): 8.88 µM | GI50 (OVCAR-4 ovarian): 1.61 µM | TGI (OVCAR-4 ovarian): 4.12 µM
